Data: patent US11807635B2, “Nitrile derivative that acts as inhibitor of dipeptidyl peptidase 1 and use thereof” (HAISCO PHARMACEUTICALS PTE. LTD, priority 2020, dated 2023)

Columns and labels:
[1] = target: Recombinant human DPP1 enzyme (Homo sapiens (Human), UniProt P53634); experiment: In vitro DPP1 enzyme activity assay; format: biochemical; conditions: recombinant human DPP1 activated with cathepsin L, substrate Gly-Arg-AMC, fluorescence; read-out: DPP1 inhibitory activity IC50
Method: Recombinant human DPP1 enzyme (R&D Systems, Cat. No. 1071-CY) at a final concentration of 100 μg/mL was mixed with recombinant human cathepsin L (R&D Systems, Cat. No. 952-CY) at a final concentration of 20 μg/mL were mixed and incubated at room temperature for 1 hour to activate the DPP1 enzyme. The activated DPP1 enzyme was diluted 100-fold, and 5 μL of compounds at different concentrations and 5 μL of the diluted DPP1 enzyme were added to a 384-well plate and incubated at room temperature for 30 minutes. […] IC50 values were calculated using the DosResp function of the Origin2019 software.

[2] = Pharmacokinetic experiment in rats; format: in vivo; conditions: rat, male SD rats, plasma; for Vd: read-out: Vdss
Method: 1.1 Test animals: Male SD rats, about 220 g, 6-8 weeks old, 6 rats/compound. The rats were purchased from CHENGDU DOSSY EXPERIMENTAL ANIMALS CO., LTD.
1.2 Test design: On the day of the experiment, 6 SD rats were randomly grouped according to their body weight. The rats were fasted but given water for 12-14 h one day before the administration, and were fed 4 h after the administration.
Before and after the administration, 0.1 ml of blood was taken from the orbit of the rats under isoflurane anesthesia and placed in an EDTAK2 centrifuge tube. The blood was centrifuged at 5000 rpm and 4° C. for 10 min to collect plasma. Blood sampling time point for the intravenous administration group: 0, 5, 15, 30 min, 1, 2, 4, 6, 8, and 24 h; and blood sampling time point for the intragastric administration group: 0, 5, 15, 30 min, 1, 2, 4, 6, 8, and 24 h. Before analysis and detection, all samples were stored at −80° C.

Chain of Recombinant human DPP1 enzyme (P53634 25-134): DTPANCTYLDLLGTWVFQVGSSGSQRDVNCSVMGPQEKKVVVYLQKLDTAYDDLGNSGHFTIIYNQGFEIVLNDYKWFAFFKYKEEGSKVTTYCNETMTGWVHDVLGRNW
Chain of Recombinant human DPP1 enzyme (P53634 231-394): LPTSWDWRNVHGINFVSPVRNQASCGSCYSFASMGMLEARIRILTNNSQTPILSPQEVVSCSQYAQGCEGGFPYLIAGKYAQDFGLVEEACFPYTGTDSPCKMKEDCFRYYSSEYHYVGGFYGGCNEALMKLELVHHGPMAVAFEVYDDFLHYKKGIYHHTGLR
Chain of Recombinant human DPP1 enzyme (P53634 395-463): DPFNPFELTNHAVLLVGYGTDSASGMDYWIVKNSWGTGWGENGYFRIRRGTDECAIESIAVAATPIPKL

Structure (SMILES) | IC50 [1] [nM] | other results
Cc1nc(-c2ccc(C[C@@H](C#N)NC(=O)[C@@H]3CNCCCO3)c(F)c2)sc1C#N [Compound 12, (S)—N—((S)-1-cyano-2-(4-(5-cyano-4-methylthiazol-2-yl)-2-fluorophenyl)ethyl)-1,4-oxazepane-2-carboxamide] | 21 | –
N#C[C@H](Cc1ccc(-c2ccc3c(c2)CCNC3=O)cc1F)NC(=O)[C@@H]1CNCCCO1 [Compound 10, (S)—N—((S)-1-cyano-2-(2-fluoro-4-(1-oxo-1,2,3,4-tetrahydroisoquinolin-6-yl)phenyl)ethyl)-1,4-oxazepane-2-carboxamide] | 6.7 | –
Cn1c(=O)oc2ccc(-c3cc(F)c(C[C@@H](C#N)NC(=O)[C@@H]4CNCCCO4)cn3)cc21 [Compound 35, (S)—N—((S)-1-cyano-2-(4-fluoro-6-(3-methyl-2-oxo-2,3-dihydrobenzo[d]oxazol-5-yl)pyridin-3-yl)ethyl)-1,4-oxazepane-2-carboxamide] | 4 | –
Cn1c(=O)oc2ccc(-c3ccc(C[C@@H](C#N)NC(=O)[C@@H]4CNCCCO4)cc3)cc21 [INS1007, reference compound] | – | AUC(0-t) ([2]; iv, intravenously 1 mg/kg): 8400 ng·h/mL; clearance ([2]; iv, intravenously 1 mg/kg): 2.08 mL/min/kg; Vd ([2]; iv, intravenously 1 mg/kg): 0.738 L/kg; bioavailability ([2]; po, intragastrically 3 mg/kg): 88.1%; AUC(0-t) ([2]; po, intragastrically 3 mg/kg): 22200 ng·h/mL
N#Cc1ccc(-c2ccc(C[C@@H](C#N)NC(=O)[C@@H]3CNCCCO3)c(F)c2)cc1C1CC1 [Compound 17, (S)—N—((S)-1-cyano-2-(4′-cyano-3′-cyclopropyl-3-fluoro-[1,1′-biphenyl]-4-yl)ethyl)-1,4-oxazepane-2-carboxamide] | 7.4 | –
CN1CCN(Cc2ccc(-c3ccc(C[C@@H](C#N)NC(=O)[C@@H]4CNCCCO4)c(F)c3)cc2)CC1 [Compound 14, (S)—N—((S)-1-cyano-2-(3-fluoro-4′-((4-methylpiperazin-1-yl)methyl)-[1,1′-biphenyl]-4-yl)ethyl)-1,4-oxazepane-2-carboxamide] | 12.9 | –
N#Cc1ccc(-c2ccc(C[C@@H](C#N)NC(=O)[C@@H]3CNCCCO3)c(F)c2)cc1C(F)(F)F [Compound 29, (S)—N—((S)-1-cyano-2-(4′-cyano-3-fluoro-3′-(trifluoromethyl)-[1,1′-biphenyl]-4-yl)ethyl)-1,4-oxazepane-2-carboxamide] | 4.9 | –
N#C[C@H](Cc1ccc(C#CC2CCCC2)cc1F)NC(=O)[C@@H]1CNCCCO1 [Compound 11, (S)—N—((S)-1-cyano-2-(4-(cyclopentylethynyl)-2-fluorophenyl)ethyl)-1,4-oxazepane-2-carboxamide] | 239 | –
Cn1c(=O)oc2ccc(-c3ccc(C[C@@H](C#N)NC(=O)[C@@H]4CNCCCO4)c(F)c3)cc21 [Compound 1, (S)—N—((S)-1-cyano-2-(2-fluoro-4-(3-methyl-2-oxo-2,3-dihydrobenzo[d]oxazol-5-yl)phenyl)ethyl)-1,4-oxazepane-2-carboxamide] | – | AUC(0-t) ([2]; iv, intravenously 1 mg/kg): 9500 ng·h/mL; clearance ([2]; iv, intravenously 1 mg/kg): 1.66 mL/min/kg; Vd ([2]; iv, intravenously 1 mg/kg): 0.753 L/kg; bioavailability ([2]; po, intragastrically 3 mg/kg): > 100%; AUC(0-t) ([2]; po, intragastrically 3 mg/kg): 31200 ng·h/mL
N#C[C@H](Cc1ccc(-c2nc3ccccc3s2)cc1F)NC(=O)[C@@H]1CNCCCO1 [Compound 13, (S)—N—((S)-2-(4-(benzo[d]thiazol-2-yl)-2-fluorophenyl)-1-cyanoethyl)-1,4-oxazepane-2-carboxamide] | 71 | –
COC1CNCC(C(=O)N[C@H](C#N)Cc2ccc(-c3ccc(S(F)(F)(F)(F)F)cc3)cc2F)OC1 (stereo partly drawn) [Compound 43, N—((S)-1-cyano-2-(3-fluoro-4′-(pentafluoro-16-sulfanyl)-[1,1′-biphenyl]-4-yl)ethyl)-6-methoxy-1,4-oxazepane-2-carboxamide] | 0.3 | –
Cc1csc(-c2ccc(C[C@@H](C#N)NC(=O)[C@@H]3CNCCCO3)c(F)c2)n1 [Compound 15, (S)—N—((S)-1-cyano-2-(2-fluoro-4-(4-methylthiazol-2-yl)phenyl)ethyl)-1,4-oxazepane-2-carboxamide] | 33 | –
